Our source for the solubility values is patent publication US20250213573A1, “PHARMACEUTICAL COMPOSITION COMPRISING JAK INHIBITOR, PREPARATION METHOD THEREFOR AND USE THEREOF” (BEIJING MAXINOVEL PHARMACEUTICALS CO., LTD., priority 2022, published 2025).

The term solubility denotes the dissolved amount per volume that the medium holds.

The nature of this data set: Saturation solubility test of the compound of formula I in different solvents. Format: physicochemical. The settings on record: thermodynamic from solid. The source says:
Example 1: Saturation Solubility Test of the Compound of Formula I in Different Solvents

Regarding `CCS(=O)(=O)N1CC(C(CC#N)n2cc(-c3nc(Nc4cnn(C)c4)nc4ccsc34)cn2)C1` (centres unmarked) [Compound of formula I], the solubility runs as follows: (aqueous buffer, saturation solubility in pH 2 phosphate buffer) 16 µg/mL; (aqueous buffer, saturation solubility in pH 4 phosphate buffer) 1 µg/mL; (aqueous buffer, saturation solubility in pH 6 phosphate buffer) 1 µg/mL; (aqueous buffer, saturation solubility in pH 8 phosphate buffer) 1 µg/mL; (oil or lipid, saturation solubility in Corn oil) 14 µg/mL; (oil or lipid, saturation solubility in Medium chain triglycerides) 75 µg/mL. Further, the solubility (oil or lipid, saturation solubility in Oleic acid) stood at 230 µg/mL; the solubility (oil or lipid, saturation solubility in Olive oil) came to 14 µg/mL; the solubility (oil or lipid, saturation solubility in Soybean oil) is 18 µg/mL; the solubility (organic solvent or mixture, saturation solubility in Anhydrous ethanol) worked out at 240 µg/mL; the solubility (organic solvent or mixture, saturation solubility in Diethylene glycol monoethyl ether) was 14000 µg/mL; the solubility (organic solvent or mixture, saturation solubility in Dimethyl sulfoxide) amounted to 302000 µg/mL. Moreover, the solubility by setting is: (organic solvent or mixture, saturation solubility in Ethyl acetate) 2340 µg/mL; (organic solvent or mixture, saturation solubility in Glycerol) 70 µg/mL; (organic solvent or mixture, saturation solubility in Polyethylene glycol 400) 26600 µg/mL; (organic solvent or mixture, saturation solubility in Propylene glycol) 990 µg/mL; (saturation solubility in Pure water) 1 µg/mL.
